Measurements published in paper PMC7047268 (ACS Central Science, 2020).

Columns and labels:
[1] = target: 5-HT2A (Homo sapiens, UniProt P28223); type: cell-based; details: for Gq agonism for 5-HT2A: agonist mode
[2] = target: T1, 5-HT2C (Homo sapiens, UniProt P28335); assay: cell-based; type: cell-based
T1 sequence (P28335 33-458): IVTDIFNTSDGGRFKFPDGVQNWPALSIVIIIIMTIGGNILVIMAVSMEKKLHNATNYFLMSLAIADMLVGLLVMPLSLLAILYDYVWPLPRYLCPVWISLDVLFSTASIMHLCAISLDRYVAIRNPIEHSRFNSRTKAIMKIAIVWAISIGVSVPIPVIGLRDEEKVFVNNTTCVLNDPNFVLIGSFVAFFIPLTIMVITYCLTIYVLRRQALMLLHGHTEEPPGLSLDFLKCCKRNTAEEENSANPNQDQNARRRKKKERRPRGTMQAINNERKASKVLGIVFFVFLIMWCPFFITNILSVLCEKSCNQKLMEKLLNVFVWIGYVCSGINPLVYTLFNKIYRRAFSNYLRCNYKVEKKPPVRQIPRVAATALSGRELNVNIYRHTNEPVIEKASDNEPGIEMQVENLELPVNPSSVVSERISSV

[3] = target: 5-HT2B (Homo sapiens, UniProt P41595); assay: cell-based; type: cell-based; details: for Gq agonism for 5-HT2B: agonist mode
[4] = system: overnight fasting male C57BL/6J mice; assay: Acute feeding suppression; type: in vivo; details: intraperitoneal; 1857 30 mg/kg, lorcaserin 10 mg/kg; vs vehicle
[5] = target: T2, human 5-HT2C and its mutants (Homo sapiens, UniProt P28335); assay: Tango β-arrestin2 recruitment assay, HTLA cells; type: cell-based; details: for β-arrestin2 recruitment agonist activity (Tango): wild-type 5-HT2C, agonist mode
T2 sequence (P28335 33-458): T1 sequence (P28335 33-458)

[6] = system: diet-induced obesity (DIO) mice; assay: DIO mice feeding suppression; type: in vivo
[7] = target: T1, 5-HT2C; type: cell-based
[8] = system: wild-type or mutant 5-HT2C; assay: Radiolabeled ligand binding assay, 3H-mesulergine, transfected CHO cells; parameters: species or system human
[9] = 30 mg/kg i.p. daily for 10 days
[10] = 30 mg/kg i.p. daily for 10 days, vs vehicle
[11] = 30 mg/kg i.p. daily, from day 5 until end of study

Sequence of 5-HT2B (P41595 whole entry): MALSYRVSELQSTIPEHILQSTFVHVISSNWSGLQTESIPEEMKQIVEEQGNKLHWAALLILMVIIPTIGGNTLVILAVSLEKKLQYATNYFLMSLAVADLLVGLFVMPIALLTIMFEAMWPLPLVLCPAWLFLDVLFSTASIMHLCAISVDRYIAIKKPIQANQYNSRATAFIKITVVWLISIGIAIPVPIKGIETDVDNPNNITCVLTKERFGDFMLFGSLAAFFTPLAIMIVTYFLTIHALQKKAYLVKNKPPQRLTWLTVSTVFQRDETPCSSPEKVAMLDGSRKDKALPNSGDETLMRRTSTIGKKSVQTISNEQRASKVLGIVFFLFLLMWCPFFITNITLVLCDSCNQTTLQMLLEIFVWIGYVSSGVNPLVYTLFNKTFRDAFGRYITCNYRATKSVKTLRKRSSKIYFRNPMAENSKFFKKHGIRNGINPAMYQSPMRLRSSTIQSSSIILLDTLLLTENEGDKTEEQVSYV
Sequence of 5-HT2A (P28223 whole entry): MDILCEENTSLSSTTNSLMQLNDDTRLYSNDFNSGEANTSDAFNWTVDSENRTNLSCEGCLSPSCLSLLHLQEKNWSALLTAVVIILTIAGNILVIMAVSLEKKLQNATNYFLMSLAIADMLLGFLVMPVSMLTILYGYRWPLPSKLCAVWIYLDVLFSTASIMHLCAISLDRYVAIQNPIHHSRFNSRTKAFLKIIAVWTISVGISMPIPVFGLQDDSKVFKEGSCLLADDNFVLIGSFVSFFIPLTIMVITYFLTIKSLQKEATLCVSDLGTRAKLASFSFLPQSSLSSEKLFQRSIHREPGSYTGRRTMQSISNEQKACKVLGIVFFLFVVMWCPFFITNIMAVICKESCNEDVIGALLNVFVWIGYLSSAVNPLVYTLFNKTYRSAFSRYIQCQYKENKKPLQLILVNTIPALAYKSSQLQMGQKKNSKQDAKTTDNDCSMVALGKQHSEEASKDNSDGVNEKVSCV

Compound: COc1cc2c3c(c1OC)-c1ccccc1CC3NCC2 (centres unmarked) [Compound 15781, nornuciferine]
- Gq agonism for 5-HT2A [1]: none of them exhibited measurable Gq agonism
- EC50 [2]: 0.653 µM
- Emax ([2]; HEK-293T, read-out: Emax relative to 5-HT): 65.6%
- IC50 [3]: > 10 µM
- Gq agonism for 5-HT2B [3]: none of them exhibited measurable Gq agonism

Compound: COc1cc2c3c(c1OC)-c1ccccc1C[C@H]3N(C)CC2 [Compound 15856, Nuciferine]
- antagonism of Gq-mediated activity at 5-HT2A [1]: sub-micromolar potency
- antagonism of Gq-mediated activity at 5-HT2C [2]: sub-micromolar potency
- antagonism of Gq-mediated activity at 5-HT2B [3]: sub-micromolar potency

Compound: C[C@H]1CNCCc2ccc(Cl)cc21 [Lorcaserin, lorcaserin, reference compound]
- acute food intake suppression [4]: suppressed food intake up to 2 h postinjection
- agonist efficacy class in G protein pathway at 5-HT2C [2]: full agonist
- β-arrestin2 recruitment agonist activity (Tango) [5]: full agonist

Compound: (R)-asimilobine [Compound 1857]
- acute food intake suppression [4]: reduced food intake from 30 min to 4 h postinjection
- Gq agonism for 5-HT2A [1]: none of them exhibited measurable Gq agonism
- blood glucose relative to vehicle [6, 9]: −20.9%
- liver TC and TG levels [6, 9]: decreased liver TC and TG levels
- serum total cholesterol (TC) relative to vehicle [6, 9]: −7.9%
- serum total triglyceride (TG) relative to vehicle [6, 9]: unchanged
- total organ weight of epididymal white adipose tissue (WAT) [6, 10]: −29.3%
- total organ weight of inguinal WAT [6, 10]: −46.4%
- body weight in DIO mice [6, 11]: weight loss
- food intake in DIO mice [6, 11]: Significant reduction of food intake
- in vitro potency for 5-HT2C activation lower than that of lorcaserin [2]: 2 orders of magnitude
- Emax relative to 5-HT ([2]; Gq-mediated calcium signaling at 5-HT2C): 86.1%
- β-arrestin2 recruitment agonist activity (BRET) [7]: does not possess agonist activity
- antagonism of β-arrestin2 association (BRET) ([7]; agonist lorcaserin (4 μM)): acts as an antagonist for β-arrestin2 association
- Gq agonism for 5-HT2B [3]: none of them exhibited measurable Gq agonism
- enhancement of binding [8]: 6 fold
- antagonism of β-arrestin signaling (Tango) ([5]; against agonist ergotamine): acts as an antagonist
- β-arrestin2 recruitment agonist activity (Tango) [5]: no β-arrestin recruitment activity
